According to paper PMC10634346 (Cancer Research Communications, 2023):
Like-named read-outs stand apart in the source and are kept apart here.

Columns and labels:
[1] = tested on: SU-DHL-4 and SU-DHL-10 cell lines; experiment: RNA-seq differential gene expression in DLBCL cell lines; format: cell-based, human
Procedure: Evaluation of the pharmacodynamic extent and duration of CDK9 inhibition were performed in vitro using the human DLBCL cell lines SU-DHL-4 and SU-DHL-10, harboring MYC amplification and MYC overexpression with P57T mutation, respectively. Cells were seeded 18 hours prior to treatment for 4 hours with one of three CDK9 inhibitors, enitociclib (0.25 and1 µmol/L), atuveciclib (1 µmol/L) or KB-0742 (1 µmol/L), cells were washed, and incubation continued until 48 hours posttreatment. Samples were collected before treatment (−4), immediately after treatment (0), and at 1, 2, 4, 8, 12, 16, 24, and 48 hours after washout for RNA sequencing (RNA-seq), qPCR, and Western blotting analyses. Total RNA was extracted from blood of patients and cell lines using RNeasy Plus Mini Kit (QIAGEN, #74136) and cDNA prepared with the Maxima First Strand cDNA Synthesis Kit for RT-PCR (Thermo Fisher Scientific, K1642) according to manufacturer's instructions. The integrity of purified total RNA was evaluated using an Agilent 2100 Bioanalyzer system and RNA 6000 Nano Kit (Agilent, #5067-1511). Differential gene expression analysis was performed (Fios Genomics) from RNA-seq data (Discovery Life Sciences). MYC and MCL1 mRNA levels were measured by qPCR in vitro and in vivo, using a Taqman qPCR system (Thermo Fisher Scientific), TaqMan Fast Universal PCR Master Mix (2X) no AmpErase (#4352042) and TaqMan probes for MYC (Hs00153408_m1) and MCL1 (Hs03043899_m1). RNA-seq data were analyzed using DESeq2 ([35]). RNA-seq data generated from the analysis of two cell lines treated with the three CDK9 inhibitors was analyzed to investigate the differences in gene expression levels between various posttreatment timepoints and the pretreatment samples. Quality control assessment and exploratory data analysis by principal component analysis (PCA) were done on raw counts and on normalized count data. Normalization of RNA-seq count data was done using trimmed mean of M-values normalization and transformed with voom, resulting in log2 counts per million with associated precision weights. […] Significance values (Padj) were adjusted for multiple testing, by controlling the FDR using the Benjamini–Hochberg procedure. […] RNA-seq data generated from blood samples taken from patients before and after their first dose (C1D1) or after multiple doses, before and after their third dose (C1D15) were analyzed and normalized using the same pipeline as cell lines for comparisons.

[2] = Clinical pharmacokinetics, plasma LC/MS-MS (NCT02635672); format: in vivo, human; settings: for Cmax / half-life: human, plasma
Procedure: Fifteen patients with refractory or relapsed DH-DLBCL or other MYC+ NHL were treated with enitociclib (30 mg, 21-day cycle, once weekly x3) as a 30-minute intravenous infusion on study days 1, 8, and 15 (NCT02635672). Longitudinal gene expression levels were analyzed by RNA-seq, and enitociclib plasma concentrations were measured using LC/MS-MS. The clinical study protocol was approved by the Institutional Review Board of participating institutions and complied with the Declaration of Helsinki, current Good Clinical Practice guidelines, and local laws and regulations. Written informed consent was provided by all participants prior to the initiation of any study-specific procedure.
All pharmacokinetic parameters were calculated by noncompartmental methods as described previously ([36]) using WinNonlin v5.3 (Certara LP). Pharmacokinetic/pharmacodynamic modeling was performed using SAAM II v2.3.2 (The Epsilon Group). Pooled pharmacokinetic data from all patients [n = 15 for single dose, cycle 1 day 1 (C1D1) and n = 11 for multiple doses, cycle 1 day 15 (C1D15)] were characterized using a one-compartment model with intravenous dosing. Subsequently, the pharmacokinetic/pharmacodynamic relationship of enitociclib plasma concentrations to MCL1 and MYC mRNA change was characterized using an indirect response model ([37]) on pooled biomarker data where enitociclib concentrations inhibit the formation of MCL1 or MYC mRNA as described by the following equation: […]

[3] = tested on: p-Ser5 RNA polymerase II in SU-DHL-10 tumors; experiment: Pharmacodynamics in SU-DHL-10 xenograft tumors, p-Ser5; format: in vivo, C.B-17 SCID mice; settings: single dose, all doses (5, 10, 15 mg/kg)
Procedure: The levels of p-Ser2, p-Ser5 and total RNA polymerase II, Myc, Mcl-1, cleaved PARP (cPARP), and cleaved Caspase 3 were assessed by Western blotting and quantified near-infrared detection and background corrected quantification of fluorescence intensity on an Odyssey Imaging System with IRDye secondary antibodies (LI-COR Biosciences). For quantification, the protein levels were normalized to GAPDH or HSP90, expressed as a ratio to DMSO or vehicle control at matched timepoints. The normalized relative protein levels of p-Ser2 were used for a treatment effect comparison by performing an ANOVA using PROC MIXED in SAS. The ANOVA model included treatment, timepoints and their interactions as fixed effects. The least square means (LSM), differences between the LSMs and associated P values were generated. The following primary antibodies were used: Rpb1 NTD (D8L4Y) rabbit antibody [Cell Signaling Technology (CST), #14958], anti-RNA polymerase II subunit B1 (phospho CTD Ser-2, clone 3E10) rat antibody (Merck, 04-1571-I), recombinant anti-c-MYC rabbit antibody (Y69; Abcam, #ab32072), MCL1 (D5V5L) rabbit antibody (CST, #39224), cleaved-PARP (Asp214) (E2T4K) mouse antibody (CST, #32563), HSP90 (C45G5) rabbit antibody (CST, #4877), and GAPDH mouse antibody (Zytomed Systems, #ZYT-RGM2-6C5). […]

- Cmax ([2]; intravenous, 22.5 mg, subject 3, dose lowered from 30 to 22.5 mg, not included in average, read-out: Multiple dose C max): 592 ng/mL
- half-life ([2]; intravenous, 22.5 mg, subject 3, dose lowered from 30 to 22.5 mg, not included in average, read-out: Multiple dose t1/2 (converted)): 2.53 h
- half-life ([2]; intravenous, 30 mg, patients treated with multiple doses, read-out: mean t1/2 (converted)): 5.56 h
- Cmax ([2]; iv, 30 mg, patients, 30 mg i.v. once weekly, read-out: Cmax): 1750 nM
- unbound Cmax ([2]; patients, 30 mg i.v. once weekly, Cmax x fu): 117 nM
Compound: COc1cc(F)ccc1-c1cc(Nc2cc(CS(C)(=N)=O)ccn2)ncc1F (centres unmarked) [enitociclib]
- PHF23 fold change ([1]; 250 nmol/L, 4 hours, Padj 1.14 e-12): −12.236
- TP53RK fold change ([1]; 250 nmol/L, 4 hours, Padj 7.76 e-8): −9.992
- BTG1 and PIM3 by RNA-seq (in words) ([1]; 1 µmol/L, 4 hours): statistically significant downregulation
- PHF23 and TP53RK by RNA-seq (in words) ([1]; 1 µmol/L, 4 hours): statistically significantly downregulated
- MCL1 mRNA by RNA-seq (in words) ([1]; 4 hours treatment, in vitro): downregulation is observed but not statistically significant
- MYC mRNA by RNA-seq (in words) ([1]; 4 hours treatment, in vitro): statistically significantly downregulated
- ZPF36 by RNA-seq (in words) ([1]; 4 hours treatment, in vitro): significantly downmodulated
- MYC extent of downregulation, fold change ([1]; MYC+ DLBCL cell lines, clinically relevant conditions): −17.108 fold change
- p-Ser5 reductions in tumors (in words) [3]: not robust
